Values of other authors, collected in article PMC10215804, “Exploring Alternative Pathways to Target Bacterial Type II Topoisomerases Using NBTI Antibacterials: Beyond Halogen-Bonding Interactions” (Antibiotics, 2023).
Values after ≈ are worked out from the molar mass of the structure shown.

How the values were obtained:
A. baumannii = test system: A. baumannii; set-up: method as in PMID 35970069; conditions: cited from earlier work
K. pneumoniae = test system: K. pneumoniae; set-up: method as in PMID 35970069; conditions: cited from earlier work
MRSA (QA-11.7) = conditions: cited from earlier work
E. coli D22 = conditions: lpxC mutation; cited from earlier work
E. coli (ATCC 25922) = conditions: cited from earlier work
P. aeruginosa RDK 184 = conditions: cited from earlier work
S. aureus topoIV = biological target: T1, S. aureus topoIV (Staphylococcus aureus, UniProt P0C1U9); conditions: relaxation inhibition; cited from earlier work
T1 construct: purchased Inspiralis (Norwich, UK)

S. aureus DNA gyrase = biological target: T2, S. aureus DNA gyrase (Staphylococcus aureus, UniProt P20831); conditions: supercoiling inhibition; cited from earlier work
T2 construct: purchased Inspiralis (Norwich, UK)

E. coli N43 (CGSC# 5583) = conditions: AcrA knockout; cited from earlier work
S. aureus (ATCC 29213) = conditions: cited from earlier work
MRSA(QA-12.1) = test system: MRSA(QA-12.1); set-up: method as in PMID 35970069; conditions: cited from earlier work
E. coli ESBL QA-11.3 = test system: E. coli ESBL QA-11.3; set-up: method as in PMID 35970069; conditions: cited from earlier work
E. coli DNA gyrase = biological target: T3, E. coli DNA gyrase (Escherichia coli, UniProt P0AES4); conditions: supercoiling inhibition; cited from earlier work
T3 construct: purchased Inspiralis (Norwich, UK)

E. coli topoIV = biological target: T4, E. coli topoIV (Escherichia coli, UniProt P0AFI2); conditions: relaxation inhibition; cited from earlier work
T4 construct: purchased Inspiralis (Norwich, UK)

E. faecalis RDK 057 = conditions: cited from earlier work
MRSA (QA-11.2) = test system: MRSA (QA-11.2); set-up: method as in PMID 35970069; conditions: cited from earlier work
human topoisomerase IIα = biological target: T5, human topoisomerase IIα (Homo sapiens, UniProt P11388); conditions: residual activity at 100 µM compound; cited from earlier work
T5 construct: purchased Inspiralis (Norwich, UK)

VRE = conditions: cited from earlier work

T2 sequence (P20831 whole entry): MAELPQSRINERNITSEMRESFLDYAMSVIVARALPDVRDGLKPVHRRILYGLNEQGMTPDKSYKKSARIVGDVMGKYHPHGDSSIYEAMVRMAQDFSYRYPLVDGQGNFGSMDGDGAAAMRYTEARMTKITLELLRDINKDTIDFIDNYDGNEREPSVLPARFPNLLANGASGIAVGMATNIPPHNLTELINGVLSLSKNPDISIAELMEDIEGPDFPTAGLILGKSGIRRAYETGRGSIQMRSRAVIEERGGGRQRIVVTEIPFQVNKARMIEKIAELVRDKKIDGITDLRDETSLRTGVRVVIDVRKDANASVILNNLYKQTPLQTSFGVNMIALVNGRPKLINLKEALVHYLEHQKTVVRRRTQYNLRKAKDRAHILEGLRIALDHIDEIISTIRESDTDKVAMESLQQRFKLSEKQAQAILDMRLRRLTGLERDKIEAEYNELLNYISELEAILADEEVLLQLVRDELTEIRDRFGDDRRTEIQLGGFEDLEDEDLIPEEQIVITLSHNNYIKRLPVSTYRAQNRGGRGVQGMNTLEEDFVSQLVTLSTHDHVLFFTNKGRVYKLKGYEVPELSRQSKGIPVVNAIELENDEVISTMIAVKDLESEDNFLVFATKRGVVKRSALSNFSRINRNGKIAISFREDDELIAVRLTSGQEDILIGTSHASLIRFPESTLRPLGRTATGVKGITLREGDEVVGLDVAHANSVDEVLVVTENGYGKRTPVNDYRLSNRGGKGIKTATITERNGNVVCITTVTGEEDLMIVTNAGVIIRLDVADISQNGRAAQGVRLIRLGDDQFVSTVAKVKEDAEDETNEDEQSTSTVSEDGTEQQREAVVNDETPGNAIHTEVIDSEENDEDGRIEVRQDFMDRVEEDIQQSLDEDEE
T2 sequence (P0A0K8 whole entry partner): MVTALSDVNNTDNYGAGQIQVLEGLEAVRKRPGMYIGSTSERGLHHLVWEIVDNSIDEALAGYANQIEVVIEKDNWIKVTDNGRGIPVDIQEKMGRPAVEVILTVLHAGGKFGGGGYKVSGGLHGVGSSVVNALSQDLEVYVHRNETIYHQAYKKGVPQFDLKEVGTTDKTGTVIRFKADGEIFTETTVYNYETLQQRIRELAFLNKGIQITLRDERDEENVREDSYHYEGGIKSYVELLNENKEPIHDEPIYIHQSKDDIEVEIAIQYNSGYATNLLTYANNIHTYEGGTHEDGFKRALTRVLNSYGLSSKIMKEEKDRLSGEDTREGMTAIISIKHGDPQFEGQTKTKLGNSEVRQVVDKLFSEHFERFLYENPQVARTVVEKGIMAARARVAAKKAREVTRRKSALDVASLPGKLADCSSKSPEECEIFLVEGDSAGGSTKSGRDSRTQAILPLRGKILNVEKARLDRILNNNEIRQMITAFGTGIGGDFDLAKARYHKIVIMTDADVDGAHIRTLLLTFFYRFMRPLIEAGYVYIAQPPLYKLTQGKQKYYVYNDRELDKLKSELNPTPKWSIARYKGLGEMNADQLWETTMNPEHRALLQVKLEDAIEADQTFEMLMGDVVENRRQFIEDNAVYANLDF
T1 sequence (P0C1U9 whole entry): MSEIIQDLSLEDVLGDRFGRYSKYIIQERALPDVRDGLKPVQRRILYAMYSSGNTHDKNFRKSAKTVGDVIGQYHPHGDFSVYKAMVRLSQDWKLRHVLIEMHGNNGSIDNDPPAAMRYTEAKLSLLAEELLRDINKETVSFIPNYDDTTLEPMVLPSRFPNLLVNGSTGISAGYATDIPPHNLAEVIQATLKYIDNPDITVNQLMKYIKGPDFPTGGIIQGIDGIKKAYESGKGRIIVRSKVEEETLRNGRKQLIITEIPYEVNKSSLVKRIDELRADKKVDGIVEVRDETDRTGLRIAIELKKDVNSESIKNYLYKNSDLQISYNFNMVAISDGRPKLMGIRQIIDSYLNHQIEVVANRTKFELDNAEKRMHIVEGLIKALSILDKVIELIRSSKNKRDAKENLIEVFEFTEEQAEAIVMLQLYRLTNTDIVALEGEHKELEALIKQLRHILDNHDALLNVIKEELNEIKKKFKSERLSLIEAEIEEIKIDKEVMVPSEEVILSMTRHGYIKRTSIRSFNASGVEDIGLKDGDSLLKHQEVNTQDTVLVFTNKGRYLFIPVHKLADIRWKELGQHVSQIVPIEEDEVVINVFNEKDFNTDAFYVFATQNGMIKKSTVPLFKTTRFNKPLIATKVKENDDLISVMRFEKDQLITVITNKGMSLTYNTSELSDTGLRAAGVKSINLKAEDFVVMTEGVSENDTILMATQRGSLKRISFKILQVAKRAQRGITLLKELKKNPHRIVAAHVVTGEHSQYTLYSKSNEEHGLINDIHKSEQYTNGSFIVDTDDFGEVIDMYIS
T1 sequence (P0C1S7 whole entry partner): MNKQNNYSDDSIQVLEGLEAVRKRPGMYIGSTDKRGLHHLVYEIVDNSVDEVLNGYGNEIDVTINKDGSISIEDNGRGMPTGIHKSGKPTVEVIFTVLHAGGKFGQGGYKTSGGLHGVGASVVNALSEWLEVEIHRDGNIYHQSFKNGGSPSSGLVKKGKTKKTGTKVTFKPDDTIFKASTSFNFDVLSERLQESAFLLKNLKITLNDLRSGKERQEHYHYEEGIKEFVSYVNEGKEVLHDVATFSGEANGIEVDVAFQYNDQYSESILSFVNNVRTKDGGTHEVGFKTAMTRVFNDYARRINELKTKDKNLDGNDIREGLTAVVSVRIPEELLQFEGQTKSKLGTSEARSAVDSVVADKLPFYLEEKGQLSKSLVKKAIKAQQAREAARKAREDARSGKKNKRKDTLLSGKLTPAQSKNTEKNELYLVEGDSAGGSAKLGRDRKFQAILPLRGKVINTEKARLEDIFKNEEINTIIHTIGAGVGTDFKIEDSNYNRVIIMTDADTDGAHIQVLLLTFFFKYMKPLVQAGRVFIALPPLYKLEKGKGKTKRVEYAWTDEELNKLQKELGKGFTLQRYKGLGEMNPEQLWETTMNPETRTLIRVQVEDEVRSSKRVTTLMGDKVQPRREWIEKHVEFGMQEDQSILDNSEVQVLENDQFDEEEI
T3 sequence (P0AES4 whole entry): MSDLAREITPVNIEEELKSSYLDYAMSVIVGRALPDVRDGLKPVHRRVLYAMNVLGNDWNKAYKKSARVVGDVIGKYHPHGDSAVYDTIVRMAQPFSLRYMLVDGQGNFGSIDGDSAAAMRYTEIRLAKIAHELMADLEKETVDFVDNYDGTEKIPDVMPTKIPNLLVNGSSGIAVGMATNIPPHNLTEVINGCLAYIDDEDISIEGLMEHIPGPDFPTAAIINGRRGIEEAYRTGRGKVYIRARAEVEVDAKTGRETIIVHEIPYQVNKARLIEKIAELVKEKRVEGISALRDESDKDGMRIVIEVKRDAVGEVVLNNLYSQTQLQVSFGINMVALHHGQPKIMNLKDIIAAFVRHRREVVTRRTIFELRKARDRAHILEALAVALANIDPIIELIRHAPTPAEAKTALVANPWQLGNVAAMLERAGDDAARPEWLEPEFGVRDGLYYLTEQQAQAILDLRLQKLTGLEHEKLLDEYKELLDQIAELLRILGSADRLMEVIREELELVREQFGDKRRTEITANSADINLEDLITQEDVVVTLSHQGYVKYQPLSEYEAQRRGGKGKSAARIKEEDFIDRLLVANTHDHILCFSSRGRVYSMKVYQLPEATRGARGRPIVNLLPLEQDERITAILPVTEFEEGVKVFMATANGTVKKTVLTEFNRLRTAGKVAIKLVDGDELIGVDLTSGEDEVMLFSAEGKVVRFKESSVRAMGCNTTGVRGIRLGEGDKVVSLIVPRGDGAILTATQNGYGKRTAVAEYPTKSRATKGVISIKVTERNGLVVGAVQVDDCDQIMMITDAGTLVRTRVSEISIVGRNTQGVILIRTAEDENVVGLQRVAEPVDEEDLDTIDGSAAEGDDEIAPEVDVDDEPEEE

SMILES	MIC A. baumannii (A. baumannii)	MIC K. pneumoniae (K. pneumoniae)	MIC MRSA (QA-11.7) (MRSA (QA-11.7))	MIC E. coli D22 (E. coli D22)	MIC E. coli (ATCC 25922) (E. coli (ATCC 25922))	MIC P. aeruginosa RDK 184 (P. aeruginosa RDK 184)	IC50 (S. aureus topoIV)	IC50 (S. aureus DNA gyrase)	MIC E. coli N43 (CGSC# 5583) (E. coli N43 (CGSC# 5583))	MIC S. aureus (ATCC 29213) (S. aureus (ATCC 29213))	MIC MRSA(QA-12.1) (MRSA(QA-12.1))	MIC E. coli ESBL QA-11.3 (E. coli ESBL QA-11.3)	IC50 (E. coli DNA gyrase)	IC50 (E. coli topoIV)	MIC E. faecalis RDK 057 (E. faecalis RDK 057)	MIC MRSA (QA-11.2) (MRSA (QA-11.2))	Human TopoIIα (% RA at 100 µM) (human topoisomerase IIα)	MIC VRE (VRE)
COc1ccc2nccc(C(O)CC3CC[C@H](NCc4ccc(Br)cc4)CO3)c2n1 (stereo partly drawn) [Compound 4]	>128 µg/mL	128 µg/mL (≈ 271 µM)	0.016 µg/mL (≈ 0.0339 µM)	1 µg/mL (≈ 2.12 µM)	16 µg/mL (≈ 33.9 µM)	128 µg/mL (≈ 271 µM)	> 100000 nM	65 ± 2 nM	0.25 µg/mL (≈ 0.529 µM)	0.016 µg/mL (≈ 0.0339 µM)	0.016 µg/mL (≈ 0.0339 µM)	>128 µg/mL	1570 ± 404 nM	52 ± 3 nM	0.5 µg/mL (≈ 1.06 µM)	0.031 µg/mL (≈ 0.0656 µM)	106 ± 0%	0.032 µg/mL (≈ 0.0677 µM)
COc1ccc2nccc(OC[C@H]3CC[C@H](NCc4ccc(Br)cc4)CO3)c2n1 [Compound 3]	>128 µg/mL	128 µg/mL (≈ 279 µM)	0.5 µg/mL (≈ 1.09 µM)	8 µg/mL (≈ 17.5 µM)	128 µg/mL (≈ 279 µM)	128 µg/mL (≈ 279 µM)	> 100000 nM	294 ± 100 nM	8 µg/mL (≈ 17.5 µM)	0.125 µg/mL (≈ 0.273 µM)	0.125 µg/mL (≈ 0.273 µM)	>128 µg/mL	7740 ± 2310 nM	131 ± 40 nM	2 µg/mL (≈ 4.36 µM)	0.25 µg/mL (≈ 0.545 µM)	105 ± 1%	1 µg/mL (≈ 2.18 µM)
